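Grown in 96-well plates, cells were treated for 48 hours with each compound at five concentrations. Insufficient inhibition: endpoint recorded as highest concentration tested. GI50 marks 50% less growth.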 Calls of active or inactive are those of the source. No stated cut-off is given here; in the data, active = GI50 up to about 1.1 µM and inactive = higher.
What was measured:
Assay in all cases: DTP human tumour cell line panel, 48 h
[1] = tested on: OVCAR-5
[2] = tested on: UO-31
[3] = tested on: CCRF-CEM
[4] = tested on: NCI/ADR-RES
[5] = tested on: IGROV-1
[6] = tested on: SK-OV-3
[7] = tested on: NCI-H522
[8] = tested on: RPMI-8226
[9] = tested on: 786-0
[10] = tested on: NCI-H226
[11] = tested on: SK-MEL-2
[12] = tested on: SNB-19
[13] = tested on: MOLT-4
[14] = tested on: SN12C
[15] = tested on: PC-3
[16] = tested on: HL-60
[17] = tested on: SNB-75
[18] = tested on: Hs-578T
[19] = tested on: UACC-257
[20] = tested on: RXF 393

Row | SMILES | GI50 [1] | GI50 [2] | GI50 [3] | GI50 [4] | GI50 [5] | GI50 [6] | GI50 [7] | GI50 [8] | GI50 [9] | GI50 [10] | GI50 [11] | GI50 [12] | GI50 [13] | GI50 [14] | GI50 [15] | GI50 [16] | GI50 [17] | GI50 [18] | GI50 [19] | GI50 [20]
1 | OC(C#Cc1ccccc1)(c1ccccc1)c1ccccc1 | 30.5 µM (inactive) | 40.8 µM (inactive) | 11.6 µM (inactive) | 36.6 µM (inactive) | 43.7 µM (inactive) | > 100 µM (inactive) | 30.9 µM (inactive) | 16.4 µM (inactive) | > 100 µM (inactive) | 26.2 µM (inactive) | 23.8 µM (inactive) | 70.6 µM (inactive) | 47.6 µM (inactive) | 69.8 µM (inactive) | 31.9 µM (inactive) | 38.6 µM (inactive) | 55.3 µM (inactive) | 54.8 µM (inactive) | 24.5 µM (inactive) | 
2 | CN(C)C(=O)C(F)(F)C(c1ccccc1)C1C(=O)N(C)C(=O)N(C)C1=O (stereo not drawn) | > 100 µM (inactive) | > 100 µM (inactive) | > 100 µM (inactive) | > 100 µM (inactive) |  | > 100 µM (inactive) |  | > 100 µM (inactive) | > 100 µM (inactive) | > 100 µM (inactive) | > 100 µM (inactive) | > 100 µM (inactive) | > 100 µM (inactive) |  | > 100 µM (inactive) |  | > 100 µM (inactive) |  | > 100 µM (inactive) | > 100 µM (inactive)
3 | CCOC(=O)/C1=C(\C)N(Cc2ccccc2)C(=O)c2ccccc2C(=O)c2c(OC(C)=O)ccc(OC(C)=O)c21 | 41.7 µM (inactive) | > 100 µM (inactive) | 40.8 µM (inactive) | 31.8 µM (inactive) | 21.9 µM (inactive) | > 100 µM (inactive) | 34.9 µM (inactive) | 18.9 µM (inactive) | > 100 µM (inactive) |  | 97.5 µM (inactive) | > 100 µM (inactive) | 59.7 µM (inactive) | > 100 µM (inactive) |  | 29.9 µM (inactive) | > 100 µM (inactive) | 33.5 µM (inactive) | 61.9 µM (inactive) | 33.2 µM (inactive)
4 | CN(C)CCCNC(=O)N/N=C/c1ccc([N+](=O)[O-])cc1 | > 100 µM (inactive) | > 100 µM (inactive) | > 100 µM (inactive) | > 100 µM (inactive) | > 100 µM (inactive) | > 100 µM (inactive) | > 100 µM (inactive) |  | > 100 µM (inactive) | > 100 µM (inactive) | > 100 µM (inactive) | > 100 µM (inactive) | > 100 µM (inactive) | > 100 µM (inactive) | > 100 µM (inactive) | > 100 µM (inactive) | 25.4 µM (inactive) | 46.7 µM (inactive) | > 100 µM (inactive) | 
5 | CN1C(=O)C2(C=CC(O)CC2)c2ccccc21 (stereo not drawn) | > 100 µM (inactive) | > 100 µM (inactive) | > 100 µM (inactive) | > 100 µM (inactive) | > 100 µM (inactive) | > 100 µM (inactive) | > 100 µM (inactive) | > 100 µM (inactive) | > 100 µM (inactive) | > 100 µM (inactive) | > 100 µM (inactive) | > 100 µM (inactive) | > 100 µM (inactive) | > 100 µM (inactive) | > 100 µM (inactive) | > 100 µM (inactive) | > 100 µM (inactive) |  | > 100 µM (inactive) | 
6 | COC(=O)/C(=N\N)C(C(=O)C(=O)Nc1nnc(S)[nH]1)c1nc2ccc([N+](=O)[O-])cc2nc1O (stereo not drawn) | > 100 µM (inactive) | > 100 µM (inactive) | > 100 µM (inactive) |  | > 100 µM (inactive) | > 100 µM (inactive) | > 100 µM (inactive) | > 100 µM (inactive) | > 100 µM (inactive) | > 100 µM (inactive) | > 100 µM (inactive) | > 100 µM (inactive) | > 100 µM (inactive) | > 100 µM (inactive) |  | > 100 µM (inactive) | > 100 µM (inactive) |  | > 100 µM (inactive) | > 100 µM (inactive)
7 | C=CC1(CCC(Br)C(C)(C)Cl)CO1 (stereo not drawn) | > 10 µM (inactive) | > 10 µM (inactive) | > 10 µM (inactive) | > 10 µM (inactive) | > 10 µM (inactive) | > 10 µM (inactive) | > 10 µM (inactive) | > 10 µM (inactive) | > 10 µM (inactive) |  | > 10 µM (inactive) | > 10 µM (inactive) | > 10 µM (inactive) | > 10 µM (inactive) | > 10 µM (inactive) |  | > 10 µM (inactive) |  |  | 
8 | O=C(Cc1ccccc1)NNc1nc(NNC(=O)c2ccncc2)nc(Nc2ccc([N+](=O)[O-])cc2)n1 | > 10 µM (inactive) | > 10 µM (inactive) | 7.57 µM (inactive) | > 10 µM (inactive) | > 10 µM (inactive) | > 10 µM (inactive) | > 10 µM (inactive) | > 10 µM (inactive) | > 10 µM (inactive) |  |  | 6.56 µM (inactive) | > 10 µM (inactive) | > 10 µM (inactive) | 2.7 µM (inactive) |  | > 10 µM (inactive) | > 10 µM (inactive) | 5.69 µM (inactive) | 
9 | O=C1CC(Cc2n[nH]c3c2CCCC3)CC(=O)N1 | > 100 µM (inactive) |  | 37.1 µM (inactive) | > 100 µM (inactive) | > 100 µM (inactive) | > 100 µM (inactive) |  | > 100 µM (inactive) | > 100 µM (inactive) | > 100 µM (inactive) | > 100 µM (inactive) |  | > 100 µM (inactive) | > 100 µM (inactive) | > 100 µM (inactive) | > 100 µM (inactive) | > 100 µM (inactive) |  | > 100 µM (inactive) | > 100 µM (inactive)
10 | CCCCCCCCCCCCCC1=C(O)C(=O)C(CC2=C(O)C(=O)C(CCCCCCCCCCCCC)=C(O)C2=O)=C(O)C1=O | > 100 µM (inactive) | > 100 µM (inactive) | 98.2 µM (inactive) |  | > 100 µM (inactive) | 44.7 µM (inactive) | > 100 µM (inactive) |  | > 100 µM (inactive) | > 100 µM (inactive) | > 100 µM (inactive) | 27.9 µM (inactive) | > 10 µM (inactive) | > 100 µM (inactive) | > 100 µM (inactive) | 32.8 µM (inactive) | 22.3 µM (inactive) | 36 µM (inactive) | > 100 µM (inactive) | 6.11 µM (inactive)
11 | COc1ccccc1OCC(COC(=O)Nc1ccc(C)cc1)OC(=O)Nc1ccc(C)cc1 (stereo not drawn) | 21.8 µM (inactive) | 17.2 µM (inactive) | 18.2 µM (inactive) |  | 26 µM (inactive) | 24.7 µM (inactive) | 16.1 µM (inactive) | 16.3 µM (inactive) | 20 µM (inactive) | 24.7 µM (inactive) | 13.8 µM (inactive) | 18.7 µM (inactive) | 18.9 µM (inactive) | 17.9 µM (inactive) |  | 15 µM (inactive) | 23 µM (inactive) |  | 19.3 µM (inactive) | 7.19 µM (inactive)
12 | COC(=O)c1cccc(C)c1C1CN=NC12Cc1cc(C)cc(C)c1C2=O (stereo not drawn) | > 100 µM (inactive) | 55.1 µM (inactive) | 28.4 µM (inactive) | 23.1 µM (inactive) | 52.5 µM (inactive) |  | 31.3 µM (inactive) | 33.5 µM (inactive) | 48.8 µM (inactive) | 61.5 µM (inactive) |  | 48.9 µM (inactive) | 27 µM (inactive) | 37.2 µM (inactive) |  | 17.9 µM (inactive) | 24.9 µM (inactive) | 47 µM (inactive) | > 100 µM (inactive) | 29.4 µM (inactive)
13 | SC1=NNC2(C(S)=N1)c1ccccc1-c1ccccc12 |  | 4.51 µM (inactive) | > 10 µM (inactive) | > 10 µM (inactive) | > 10 µM (inactive) | > 10 µM (inactive) |  | > 10 µM (inactive) | > 10 µM (inactive) | 8.81 µM (inactive) |  |  | > 10 µM (inactive) | > 10 µM (inactive) |  | > 10 µM (inactive) | > 10 µM (inactive) | 0.394 µM (active) | > 10 µM (inactive) | 
14 | Cc1ccc([N+](=O)[O-])cc1S(=O)(=O)Nc1ccc(C2=NN(S(=O)(=O)c3cc([N+](=O)[O-])ccc3C)C(c3ccccc3O)C2)cc1 (stereo not drawn) | > 100 µM (inactive) | > 100 µM (inactive) | > 100 µM (inactive) | 99.8 µM (inactive) | 98.9 µM (inactive) | 51.8 µM (inactive) | 44 µM (inactive) | 51.1 µM (inactive) | 30.8 µM (inactive) | > 100 µM (inactive) | 31.5 µM (inactive) | 42.4 µM (inactive) | 26.7 µM (inactive) | > 100 µM (inactive) | > 100 µM (inactive) | > 100 µM (inactive) | 31.1 µM (inactive) |  | > 100 µM (inactive) | 36.8 µM (inactive)
15 | O=[N+]([O-])c1ccc(C2CC(c3ccccc3Cl)=Nc3ccccc3S2)cc1 (stereo not drawn) | 12.9 µM (inactive) | 4.88 µM (inactive) | 2.07 µM (inactive) |  | 7.23 µM (inactive) | 29 µM (inactive) | 2.89 µM (inactive) | 1.66 µM (inactive) | 3.69 µM (inactive) | 6.87 µM (inactive) | 11.7 µM (inactive) | 4.3 µM (inactive) | 1.56 µM (inactive) | 4.02 µM (inactive) |  | 2.01 µM (inactive) | 4.21 µM (inactive) |  | 12 µM (inactive) | 3.26 µM (inactive)
16 | CN(C)CCN1C(=O)c2cccc3cc([N+](=O)[O-])cc(c23)C1=O [MITONAFIDE] | 0.762 µM (active) | 0.248 µM (active) | 0.163 µM (active) |  | 0.5 µM (active) | 0.198 µM (active) | 0.281 µM (active) | 0.443 µM (active) | 0.195 µM (active) | 0.0789 µM (active) | 1.37 µM (inactive) | 0.25 µM (active) | 0.0406 µM (active) | 0.179 µM (active) | 0.931 µM (active) | 0.0676 µM (active) | 0.194 µM (active) | 1.04 µM (active) | 0.838 µM (active) | 0.337 µM (active)

— ChEMBL document CHEMBL1201862, “PubChem BioAssay data set” (2004)
